Experiments:
Mus musculus [1] = species: Mus musculus; assay: Antinociceptive activity was tested in the mouse hot plate test; assay type: functional
Mus musculus [2] = species: Mus musculus; assay: Antinociceptive activity was tested in the mouse tail-flick test; assay type: functional
[3] = biological target: Neuronal acetylcholine receptor subunit alpha-7 (Rattus norvegicus, UniProt Q05941); assay: Inhibition of [125I]-iodo-MLA binding to Nicotinic acetylcholine receptor alpha-7 from rat brain membranes; assay type: cell membranes, Membrane
Mus musculus [4] = species: Mus musculus; assay: Blockage of Antinociceptive activity of nicotine was tested in the mouse hot plate test; assay type: functional
Mus musculus [5] = species: Mus musculus; assay: Blockage of Antinociceptive activity of nicotine was tested in the mouse tail flick test; assay type: functional
Mus musculus [6] = assay: Antinociceptive activity was tested in the mouse hot plate test at 15 mg/kg; assay type: functional
Mus musculus [7] = assay: Antinociceptive activity was tested in the mouse tail-flick test at 15 mg/kg; assay type: functional
[8] = biological target: T1, Neuronal acetylcholine receptor; alpha4/beta2 (Rattus norvegicus, UniProt P09483+P12390); assay: Inhibition of [3H]epibatidine binding to Nicotinic acetylcholine receptor alpha4-beta2 from rat membranes
[9] = biological target: T1, Neuronal acetylcholine receptor; alpha4/beta2; assay: Binding affinity towards rat Nicotinic acetylcholine receptor alpha4-beta2 expressed in Xenopus oocytes using [3H]epibatidine as radioligand; assay type: cell-based, Oocyte
[10] = biological target: Neuronal acetylcholine receptor; alpha2/beta2 (Rattus norvegicus, UniProt P12389+P12390); assay: Binding affinity towards rat alpha2-beta2 neuronal nAChR expressed in Xenopus oocytes using [3H]epibatidine as radioligand; assay type: cell-based, Oocyte
[11] = biological target: Neuronal acetylcholine receptor; alpha3/beta2 (Rattus norvegicus, UniProt P04757+P12390); assay: Binding affinity towards rat Nicotinic acetylcholine receptor alpha3-beta2 expressed in Xenopus oocytes using [3H]epibatidine as radioligand; assay type: cell-based, Oocyte
[12] = biological target: T1, Neuronal acetylcholine receptor; alpha4/beta2; assay: Inhibition of [3H]nicotine binding to Nicotinic acetylcholine receptor alpha4-beta2 from rat membranes
Mus musculus [13] = species: Mus musculus; assay: Antinociceptive activity was tested in the mouse tail-flick test from ref 15; assay type: functional
Mus musculus [14] = species: Mus musculus; assay: Antinociceptive activity was tested in the mouse tail-flick test from ref 17; assay type: functional
Mus musculus [15] = species: Mus musculus; assay: Spontaneous activity in mice from ref 15; assay type: functional
Mus musculus [16] = species: Mus musculus; assay: Drug discrimination in mice from ref 15
[17] = biological target: T1, Neuronal acetylcholine receptor; alpha4/beta2; assay: [3H](+/-)-epibatidine binding to Nicotinic acetylcholine receptor alpha4-beta2 from rat membranes
Mus musculus [18] = species: Mus musculus; assay: Antinociceptive activity was tested in the mouse tail-flick test at 112 nM; assay type: functional
[19] = biological target: Neuronal acetylcholine receptor; alpha2/beta4 (Rattus norvegicus, UniProt P12389+P12392); assay: Binding affinity towards rat Nicotinic acetylcholine receptor alpha2-beta4 expressed in Xenopus oocytes using [3H]epibatidine as radioligand; assay type: cell-based, Oocyte
[20] = biological target: T2, Neuronal acetylcholine receptor; alpha4/beta4 (Rattus norvegicus, UniProt P09483+P12392); assay: Functional potency measured as stimulation at rat Nicotinic acetylcholine receptor alpha4-beta4 expressed in Xenopus oocytes; assay type: cell-based, Oocyte
[21] = biological target: T2, Neuronal acetylcholine receptor; alpha4/beta4; assay: Binding affinity towards rat Nicotinic acetylcholine receptor alpha4-beta4 expressed in Xenopus oocytes using [3H]epibatidine as radioligand; assay type: cell-based, Oocyte
[22] = biological target: Neuronal acetylcholine receptor; alpha4/beta4 (Rattus norvegicus) (UniProt P09483+P12392); assay: Functional potency measured as maximum stimulation at rat Nicotinic acetylcholine receptor alpha4-beta4 expressed in Xenopus oocytes; assay type: cell-based; conditions: Oocyte
[23] = biological target: Neuronal acetylcholine receptor; alpha4/beta2 (Rattus norvegicus) (UniProt P09483+P12390); assay: Functional potency measured as maximum stimulation at rat Nicotinic acetylcholine receptor alpha4-beta2 expressed in Xenopus oocytes; assay type: cell-based; conditions: Oocyte
[24] = biological target: T3, Neuronal acetylcholine receptor; alpha3/beta4 (Rattus norvegicus, UniProt P04757+P12392); assay: Functional potency measured as stimulation at rat Nicotinic acetylcholine receptor alpha3-beta4 expressed in Xenopus oocytes; assay type: cell-based, Oocyte
[25] = biological target: T3, Neuronal acetylcholine receptor; alpha3/beta4; assay: Binding affinity towards rat Nicotinic acetylcholine receptor alpha3-beta4 expressed in Xenopus oocytes using [3H]epibatidine as radioligand; assay type: cell-based, Oocyte
[26] = biological target: Neuronal acetylcholine receptor; alpha3/beta4 (Rattus norvegicus) (UniProt P04757+P12392); assay: Functional potency measured as maximum stimulation at rat Nicotinic acetylcholine receptor alpha3-beta4 expressed in Xenopus oocytes; assay type: cell-based; conditions: Oocyte
[27] = biological target: T1, Neuronal acetylcholine receptor; alpha4/beta2; assay: Functional potency measured as stimulation at rat Nicotinic acetylcholine receptor alpha4-beta2 expressed in Xenopus oocytes; assay type: cell-based, Oocyte

T1 sequence (P09483 whole entry): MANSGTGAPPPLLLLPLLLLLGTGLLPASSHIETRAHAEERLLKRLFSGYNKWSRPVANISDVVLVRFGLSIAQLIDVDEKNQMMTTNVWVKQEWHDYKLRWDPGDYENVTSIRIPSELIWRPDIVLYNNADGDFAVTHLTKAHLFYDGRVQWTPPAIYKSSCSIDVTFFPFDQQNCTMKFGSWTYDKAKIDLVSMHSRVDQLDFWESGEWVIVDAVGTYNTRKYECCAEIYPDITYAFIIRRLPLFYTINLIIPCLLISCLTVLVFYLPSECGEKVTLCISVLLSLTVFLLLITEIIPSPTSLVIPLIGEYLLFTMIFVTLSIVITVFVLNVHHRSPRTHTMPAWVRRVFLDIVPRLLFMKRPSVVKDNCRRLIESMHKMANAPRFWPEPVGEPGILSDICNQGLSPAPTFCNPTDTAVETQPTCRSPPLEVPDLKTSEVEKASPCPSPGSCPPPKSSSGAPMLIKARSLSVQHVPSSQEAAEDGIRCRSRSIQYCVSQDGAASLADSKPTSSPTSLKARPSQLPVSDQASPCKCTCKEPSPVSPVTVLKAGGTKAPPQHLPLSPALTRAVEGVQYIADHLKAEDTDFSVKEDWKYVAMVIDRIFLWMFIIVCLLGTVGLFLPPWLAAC
T1 sequence (P12390 whole entry): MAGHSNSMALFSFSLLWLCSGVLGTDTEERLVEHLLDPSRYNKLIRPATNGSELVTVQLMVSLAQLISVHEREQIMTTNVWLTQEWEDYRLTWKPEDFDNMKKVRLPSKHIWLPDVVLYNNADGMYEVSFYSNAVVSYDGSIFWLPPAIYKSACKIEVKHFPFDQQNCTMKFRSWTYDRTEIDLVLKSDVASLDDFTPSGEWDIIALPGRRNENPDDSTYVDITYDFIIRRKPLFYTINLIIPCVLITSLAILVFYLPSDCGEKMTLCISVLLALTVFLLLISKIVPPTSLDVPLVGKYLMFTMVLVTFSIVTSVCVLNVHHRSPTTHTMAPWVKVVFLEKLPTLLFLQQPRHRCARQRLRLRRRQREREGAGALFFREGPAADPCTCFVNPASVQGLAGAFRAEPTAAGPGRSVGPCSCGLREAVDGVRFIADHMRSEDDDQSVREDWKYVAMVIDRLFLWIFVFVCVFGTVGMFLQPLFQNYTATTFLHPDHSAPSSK
T3 sequence (P04757 whole entry): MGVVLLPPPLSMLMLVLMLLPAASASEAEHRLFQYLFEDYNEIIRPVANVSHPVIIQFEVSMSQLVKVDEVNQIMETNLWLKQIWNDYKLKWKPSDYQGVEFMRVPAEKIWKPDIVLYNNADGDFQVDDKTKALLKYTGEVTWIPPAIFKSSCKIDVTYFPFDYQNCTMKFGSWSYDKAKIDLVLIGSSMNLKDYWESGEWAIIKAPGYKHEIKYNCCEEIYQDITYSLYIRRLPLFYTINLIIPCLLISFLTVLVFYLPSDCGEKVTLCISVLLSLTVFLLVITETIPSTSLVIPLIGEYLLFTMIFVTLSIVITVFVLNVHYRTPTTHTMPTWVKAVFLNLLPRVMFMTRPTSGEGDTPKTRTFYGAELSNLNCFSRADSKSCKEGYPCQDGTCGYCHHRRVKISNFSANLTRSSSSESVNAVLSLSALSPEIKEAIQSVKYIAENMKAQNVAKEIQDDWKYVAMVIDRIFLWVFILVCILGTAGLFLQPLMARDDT
T3 sequence (P12392 whole entry): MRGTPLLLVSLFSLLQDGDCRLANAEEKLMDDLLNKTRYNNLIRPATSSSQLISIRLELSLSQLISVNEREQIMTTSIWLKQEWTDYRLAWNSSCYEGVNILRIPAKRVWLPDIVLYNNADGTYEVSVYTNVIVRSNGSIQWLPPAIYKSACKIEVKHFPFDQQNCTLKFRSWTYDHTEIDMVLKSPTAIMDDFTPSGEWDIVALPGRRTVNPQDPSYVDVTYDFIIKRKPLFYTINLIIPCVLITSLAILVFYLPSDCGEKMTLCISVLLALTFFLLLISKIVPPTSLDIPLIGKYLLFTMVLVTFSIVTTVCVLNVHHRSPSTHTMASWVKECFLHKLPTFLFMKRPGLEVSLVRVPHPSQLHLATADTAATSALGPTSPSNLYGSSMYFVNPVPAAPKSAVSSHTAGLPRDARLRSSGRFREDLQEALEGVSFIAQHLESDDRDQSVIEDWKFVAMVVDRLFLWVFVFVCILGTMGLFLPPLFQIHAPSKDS
Neuronal acetylcholine receptor; alpha3/beta2, sequence (P04757 whole entry): as the sequence (P04757 whole entry) above
Neuronal acetylcholine receptor; alpha3/beta2, sequence (P12390 whole entry): as the sequence (P12390 whole entry) above
T2 sequence (P09483 whole entry): as the sequence (P09483 whole entry) above
T2 sequence (P12392 whole entry): as the sequence (P12392 whole entry) above
Neuronal acetylcholine receptor; alpha2/beta2, sequence (P12389 whole entry): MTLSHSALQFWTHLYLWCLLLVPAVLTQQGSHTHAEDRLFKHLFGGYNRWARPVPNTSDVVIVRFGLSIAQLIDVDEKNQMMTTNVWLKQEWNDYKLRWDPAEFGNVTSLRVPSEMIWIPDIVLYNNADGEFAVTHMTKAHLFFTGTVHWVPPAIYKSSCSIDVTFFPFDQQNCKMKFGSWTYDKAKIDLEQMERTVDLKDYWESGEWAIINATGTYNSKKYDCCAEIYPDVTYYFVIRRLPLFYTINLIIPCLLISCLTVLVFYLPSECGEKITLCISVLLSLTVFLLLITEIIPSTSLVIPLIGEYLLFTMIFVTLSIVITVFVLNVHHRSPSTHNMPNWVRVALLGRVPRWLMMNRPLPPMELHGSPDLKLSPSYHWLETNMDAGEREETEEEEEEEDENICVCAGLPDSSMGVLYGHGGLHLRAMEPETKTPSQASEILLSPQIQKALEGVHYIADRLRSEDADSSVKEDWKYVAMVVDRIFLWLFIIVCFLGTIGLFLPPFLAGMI
Neuronal acetylcholine receptor; alpha2/beta2, sequence (P12390 whole entry): as the sequence (P12390 whole entry) above
Neuronal acetylcholine receptor subunit alpha-7, sequence (Q05941 whole entry): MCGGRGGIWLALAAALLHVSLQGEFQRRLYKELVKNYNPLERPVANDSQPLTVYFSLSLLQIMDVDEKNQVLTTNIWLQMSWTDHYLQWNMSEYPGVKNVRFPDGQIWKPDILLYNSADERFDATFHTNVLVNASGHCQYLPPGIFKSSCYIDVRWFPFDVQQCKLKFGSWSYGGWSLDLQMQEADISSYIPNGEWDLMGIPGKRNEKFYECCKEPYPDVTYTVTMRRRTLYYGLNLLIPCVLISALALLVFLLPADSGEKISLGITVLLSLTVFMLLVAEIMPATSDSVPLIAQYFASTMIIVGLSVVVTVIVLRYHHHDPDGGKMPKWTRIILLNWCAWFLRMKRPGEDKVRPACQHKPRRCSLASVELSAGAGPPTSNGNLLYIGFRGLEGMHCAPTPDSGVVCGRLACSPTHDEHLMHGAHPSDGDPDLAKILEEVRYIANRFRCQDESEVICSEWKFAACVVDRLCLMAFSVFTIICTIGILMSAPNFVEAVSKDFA
Neuronal acetylcholine receptor; alpha2/beta4, sequence (P12389 whole entry): as the sequence (P12389 whole entry) above
Neuronal acetylcholine receptor; alpha2/beta4, sequence (P12392 whole entry): as the sequence (P12392 whole entry) above

Clc1ncc(C2CC3CCC2N3)cc1Br (configuration not stated)
ED50 (Mus musculus [1]): 20 µg/kg
ED50 (Mus musculus [2]): 30 µg/kg
Ki [3]: 152 nM

Fc1ncc([C@H]2C[C@@H]3CC[C@H]2N3)cc1-c1ccccc1
AD50 (Mus musculus [4]): 700 µg/kg
AD50 (Mus musculus [5]): 80 µg/kg
inhibition in vivo at 15 mg/kg (Mus musculus [6]): 10%
inhibition in vivo at 15 mg/kg (Mus musculus [7]): 5%
Ki [8]: 0.26 nM

O=c1ccc(C2CC3CCC2N3)c[nH]1 (configuration not stated)
Ki [9]: ~100 nM
Ki [10]: > 100 nM
Ki [11]: > 100 nM

Fc1ncc([C@@H]2C[C@H]3CC[C@@H]2N3)cc1-c1ccccc1
AD50 (Mus musculus [4]): 2400 µg/kg
AD50 (Mus musculus [5]): 1000 µg/kg
inhibition in vivo at 15 mg/kg (Mus musculus [6]): 8%
inhibition in vivo at 15 mg/kg (Mus musculus [7]): 7%
Ki [8]: 0.24 nM

CN1[C@H]2CC[C@@H]1[C@@H](c1ccc(Cl)nc1)C2
ED50 (Mus musculus [2]): 9 µg/kg
Ki [12]: 0.11 nM

Clc1ncc(C2CC3CCC2N3)cc1-c1ccccc1 (configuration not stated)
ED50 (Mus musculus [1]): 1000 µg/kg
ED50 (Mus musculus [2]): 700 µg/kg

Fc1ncc(C2CC3CCC2N3)cc1-c1ccccc1 (racemic)
AD50 (Mus musculus [4]): 1200 µg/kg
AD50 (Mus musculus [5]): 500 µg/kg
inhibition in vivo at 15 mg/kg (Mus musculus [6]): 4%
inhibition in vivo at 15 mg/kg (Mus musculus [7]): 3%
Ki [8]: 0.24 nM

Clc1ccc([C@H]2C[C@@H]3CC[C@H]2N3)cn1 [(-)-EPIBATIDINE]
ED50 (Mus musculus [1]): 4 µg/kg
ED50 (Mus musculus [2]): 6 µg/kg
ED50 (Mus musculus [13]): 6.1 µg/kg
ED50 (Mus musculus [14]): 9 µg/kg
ED50 (Mus musculus [15]): 1.8 µg/kg
ED50 (Mus musculus [16]): 1 µg/kg

CCN1C2CCC1C(c1ccc(Cl)nc1)C2 (racemic)
Ki [17]: 13.6 nM

Clc1ccc([C@@H]2C[C@H]3CC[C@@H]2N3)cn1 [(+)-EPIBATIDINE]
ED50 (Mus musculus [13]): 6.6 µg/kg
ED50 (Mus musculus [14]): 7 µg/kg
ED50 (Mus musculus [15]): 1.2 µg/kg
ED50 (Mus musculus [16]): 0.9 µg/kg

Cc1ccc(C2CC3CCC2N3)cn1 (configuration not stated)
Ki [12]: 0.13 nM

CCCN1C2CCC1C(c1ccc(Cl)nc1)C2 (single isomer, unassigned; (-))
Ki [12]: 10.8 nM

Ic1ccc(C2CC3CCC2N3)cn1 (configuration not stated)
Ki [8]: 0.09 nM

Nc1ccc(C2CC3CCC2N3)cn1 (configuration not stated)
Activity (Mus musculus [18]): 57%
Ki [9]: 0.35 nM
Ki [10]: 0.062 nM
Ki [19]: 3.5 nM
EC50 [20]: 1840 nM
Ki [21]: 4.3 nM
Max [22]: 41%
Max [23]: 29%
Ki [11]: 0.077 nM
EC50 [24]: 3240 nM
Ki [25]: 7.2 nM
Max [26]: 82%
EC50 [27]: 7600 nM

Reference: ChEMBL document CHEMBL1147514 (Bioorg Med Chem Lett, 2004)
